Reference: patent US7767817B2, “Water soluble boronic acid fluorescent reporter compounds and methods of use thereof” (priority 2003, dated 2010)
“And” between values parts separate entries of the source, which are not always exact repeats. Identical values can stand only once. Like-named read-outs stand apart in the source and are kept apart here.

Key:
[1] = Fluorescence binding study with fructose; settings: for Association constant (Ka) with fructose: 0.1 M phosphate buffer pH 7.4, 1:1 complex assumed; for fluorescence intensity change ΔI/I0: pH 7.4
Protocol: (§1) For a typical sugar-BTBA fluorescent measurement, a 1.0×10^−5 M stock solution of BTBA in 0.10 M phosphate buffer at pH 7.4 was made as solution A. […] Solution B was titrated into solution A in order to make mixtures with a constant concentration of BTBA and a range of concentrations of the sugar. Each mixture was allowed to stand for at least 10 min, then 3.0 mL of the mixture was transferred into a cuvette for fluorescence measurement.
(§2) The association constants (Ka) were determined according to the method III in Valeur's publication (J. Phys. Chem. 1988, 92, 6233).

[2] = Fluorescence binding study with glucose; settings: for maximum fluorescence intensity increase: physiological pH; for Association constant (Ka) with glucose: 0.1 M phosphate buffer pH 7.4, 1:1 complex assumed; for fluorescence intensity change ΔI/I0: pH 7.4
Protocol: as §1, §2

[3] = Fluorescence intensity pH profile (apparent pKa); assay type: physicochemical
Excerpt: Since the fluorescence intensity increase upon binding with a sugar seems to be a general phenomenon, the fluorescence change mechanism of compound 5 at pH 7.4 was investigated. For this purpose, the fluorescence pH profiles of both compound 5 alone and compound 5 in the presence of fructose (0.5 M) were studied. The fluorescence intensity of 5 at 334 nm in the absence of sugars decreased upon changing the pH from 3 to 12 (FIG. 3). An apparent pKa of 7.0 was observed, which is assigned to the boronic acid moiety. […] It is well-known that the binding of a diol to boronic acid often lowers the pKa of the boron species) (Springsteen, G.; Wang, B. Tetrahedron 2002, 58, 5291-5300). Therefore, the pKa, which drops from 7.0 to 4.0, can also be reasonably assigned to boron. […] It seems that the fluorescence intensity change of compound 5 is also due to diol's perturbation as that of 8-quinolineboronic acid.
To examine the relationship between the fluorescence intensity changes and the boron ionization states, the pH profile of the fluorescence intensity in the absence and presence of fructose and glucose at a fixed concentration (50 mM) was also studied (FIG. 6). […] It is worth mentioning that the pKa of the protonated dimethyl amino group of 1 is […] the emission wavelength of 1 with the protonated dimethyl amino group at low pH is about 238 nm. Therefore, the fluorescence intensity of 1 at 445 nm was not affected by the protonated dimethyl amino group. The fluorescence intensity changes correspond to the boronic acid pKa (9.4) and therefore hybridization changes, which was responsible for the fluorescence intensity changes observed.
Since the fluorescence intensity increase upon binding with a sugar seems to be a general phenomenon, next the conditions under which optimal fluorescence intensity changes are observed upon addition of a sugar was investigated. For this purpose, the fluorescence pH profiles of both compound 6 alone and in the presence of fructose (0.5 M) were studied. The fluorescence intensity of 6 in the absence of sugars increased by 17-fold upon changing the pH from 3 to 12 (FIG. 10). […] Furthermore, one would expect the pKa values of the other two ionizable groups, the carboxylic acid and the quinolinium groups, to be less than 7. Therefore, assigning the pKa at 7.9 to the boronic acid moiety is the most reasonable option. […] It is well-known that the binding of a diol to boronic acid often lowers the pKa of the boron species. […] Upon addition of fructose, the pKa of the boron drops to about 5.2, which ensures that most of the boron species are in the anionic tetrahedral state at physiological pH.
(§3) Since the fluorescence intensity increase upon binding with a sugar seems to be a general phenomenon, the use of 5-QBA functions as a fluorescent probe for diols was investigated. The fluorescence pH profiles of both 5-QBA alone and 5-QBA in the presence of D-fructose (0.5 M) were investigated. […] In order to assign each pKa, the ^11B NMR spectra of 5-QBA and its ester in a mixed deuterated methanol-water (1:1) solvent at different pH were obtained. Methanol was used so that the concentration of 5-QBA can be increased to 57 mM so as to allow for a meaningful NMR determination within a reasonable period of time.
To understand the structural features associated with the fluorescence intensity changes, we studied the pH profiles of the fluorescence intensity in the absence (FIG. 18) and presence of fructose and glucose at a fixed concentration (50 mM). […] The fluorescence intensity at 513 nm increased very quickly when pH increased from 1.78 to 7.04 (thin lines in FIG. 18), and then decreased in the pH range of 7.04-10.54 (thick lines in FIG. 18).

[4] = Fluorescence binding study with galactose; settings: for Association constant (Ka) with galactose: 0.1 M phosphate buffer pH 7.4, 1:1 complex assumed; for fluorescence intensity change ΔI/I0: pH 7.4
Protocol: as §1, §2

[5] = Fluorescence binding study with mannose; settings: for Association constant (Ka) with mannose: 0.1 M phosphate buffer pH 7.4, 1:1 complex assumed
Protocol: as §1, §2

[6] = Fluorescence binding study with sorbitol
Protocol: as §1, §2

[7] = Fluorescence binding study with tagatose
Protocol: as §1, §2

[8] = Fluorescence quantum yield; assay type: physicochemical; settings: 0.1 M phosphate buffer pH 7.4
Protocol: The effect of various carbohydrates on the fluorescent properties of compound 1 was determined in phosphate buffer at pH 7.4. The emission spectral change of 1 with fructose at different concentrations in 0.1 M aqueous phosphate buffer (pH 7.4) is shown in FIG. 4. A 41-fold emission intensity increase is observed in presence of 50 mM fructose. To the best of our knowledge, such a large emission intensity increase has never been reported for boronic acid-based saccharide sensors involving the ICT mechanism. The quantum yields of 1 in the absence (φF=0.010) and in the presence of 50 mM fructose (φF=0.42) in 0.1 M phosphate buffer (pH 7.4) were obtained using 8-quinoline boronic acid (φF=0.58 in 12 M H2SO4) as a reference compound.
For example, addition of fructose (50 mM) to the solution of 7 induced a 36-fold fluorescence intensity increase at 433 nm and a 0.55-fold fluorescence intensity decrease at 513 nm (FIG. 14). […] To the best of our knowledge, such large emission intensity changes at two wavelengths have never been reported for boronic acid-based saccharide sensors. The quantum yields (φF) of 7 were determined as 0.07 at 513 nm in 0.1 M phosphate buffer (pH 7.4) in the absence of a sugar and 0.23 at 433 nm in the presence of 50 mM of fructose, using 8-quinoline boronic acid (φF=0.58 in 12 M H2SO4) as a reference compound.

[9] = literature value (Springsteen, Wang); cited from earlier work
[10] = literature value (Springsteen, Wang); cited from earlier work; remark: listed apart in the source
[11] = literature value; cited from earlier work
[12] = Fluorescence binding study with arabinose; settings: 0.1 M phosphate buffer pH 7.4
Protocol: For a typical sugar-BTBA fluorescent measurement, a 1.0×10^−5 M stock solution of BTBA in 0.10 M phosphate buffer at pH 7.4 was made as solution A. The sugar was added to a portion of solution A to make a 1.0×10^−5 M BTBA, 1.0×10^−3 M sugar solution as solution B. Solution B was titrated into solution A in order to make mixtures with a constant concentration of BTBA and a range of concentrations of the sugar. Each mixture was allowed to stand for at least 10 min, then 3.0 mL of the mixture was transferred into a cuvette for fluorescence measurement.
as §2

[13] = 11B NMR at different pH (pKa assignment); assay type: physicochemical; settings: absence of sugar; 11B NMR in deuterated methanol-water (1:1); read-out: second pKa corresponding to boronic acid ionization
Excerpt: as §3
It should be noted that the addition of 50% methanol to water solution results in minimal changes of the solution pH. The boron signal of 5-QBA appeared at 30.0 ppm at both pH 2.0 and 7.0, consistent with the neutral trigonal boron. At an increased pH (7.5), two boron signals at 30.0 and 10.0 ppm were observed indicating a mixture of both the neutral and anionic species. […] At pH 12, a single peak at 5.7 ppm was found indicating the presence of only the anionic tetrahedral state. […] This pKa assignment is opposite to that of 8-QBA. For the fructose ester of 5-QBA, we observed the same chemical shifts (at about 10.5 ppm) at pH 6.0 and 11. […] Such a pKa-switching seems to correspond to the highest fluorescence intensity change at pH 5.8 (FIG. 13).

[14] = in 12 M H2SO4; reference compound; cited from earlier work
[15] = 0.1 M phosphate buffer, absence of sugar, 0.1 M phosphate buffer, read-out: apparent pKa assigned to the boronic acid moiety
[16] = 0.1 M phosphate buffer pH 7.4, 1:1 complex assumed

In the case of `O=C(O)c1cc(-c2ccc(B(O)O)cc2)nc2ccccc12` [Compound 6, 2-(4-phenylboronic acid)-quinoline-4-carboxylic acid], the emission intensity increase ([1]; 25 mM fructose, phosphate buffer pH 7.4) is reported as 25 fold, the “maximum fluorescence intensity increase” value ([2]; glucose 0.2 M) is reported as 6 fold and the pKa [3, 15] is reported as 7.9.

For `OB(O)c1cc2ccccc2s1` [Compound 5, 2-Benzothienylboronic acid], the “Association constant (Ka) with fructose” value [1] was 656 ± 28 M⁻¹, the “Association constant (Ka) with galactose” value [4] was 19 M⁻¹ and 19 ± 0.7 M⁻¹ and the “Association constant (Ka) with mannose” value [5] was 30 ± 1.4 M⁻¹. For the same compound, the “Association constant (Ka) with glucose” value [2] was 27 M⁻¹ and 27 ± 4.9 M⁻¹ and the pKa [3, 15] was 7.

For `CN(C)c1ccc(B(O)O)c2ccccc12` [Compound 1, 4-(dimethylamino)-naphthalene boronic acid], the emission intensity increase ([1]; 50 mM fructose, 0.1 M aqueous phosphate buffer pH 7.4) was 41 fold, the “fluorescence intensity change ΔI/I0” value ([1]; fructose 0.025 M, λex 270 nm, λem 400 nm) was 25 (0.025) and the “fluorescence intensity change ΔI/I0” value ([1]; fructose 0.05 M, λex 300 nm, λem 445 nm) was 41 (0.05). The fluorescence intensity change ([1]; fructose at concentrations above 50 mM, physiological pH) was “more than 40 fold”, the “fluorescence intensity change ΔI/I0” value ([4]; galactose 0.025 M, λex 270 nm, λem 400 nm) was 16 (0.025) and the “fluorescence intensity change ΔI/I0” value ([4]; galactose 0.50 M, λex 300 nm, λem 445 nm) was 35 (0.50). For the same compound, the “Association constant (Ka) with mannose” value [5] was 48 ± 5 M⁻¹, the “fluorescence intensity change ΔI/I0” value ([5]; mannose 0.025 M, pH 7.4, λex 270 nm, λem 400 nm) was 14 (0.025) and the “Association constant (Ka) with glucose” value [2] was 4.0 ± 0.1 M⁻¹ and 5.1 ± 1.0 M⁻¹. For the same compound, the “fluorescence intensity change ΔI/I0” value ([2]; glucose 0.20 M, λex 270 nm, λem 400 nm) was 6 (0.20), the “fluorescence intensity change ΔI/I0” value ([2]; glucose 1.0 M, λex 300 nm, λem 445 nm) was 17 (1.0) and the “maximum fluorescence intensity increase” value ([2]; glucose 1 M) was 17 fold. For the same compound, the “Association constant (Ka) with sorbitol” value [6, 16] was 226 ± 5 M⁻¹, the “fluorescence intensity change ΔI/I0” value ([6]; sorbitol 0.10 M, pH 7.4, λex 300 nm, λem 445 nm) was 42 (0.10) and the fluorescence intensity change ([6]; sorbitol at concentrations above 50 mM, physiological pH) was “more than 40 fold”. For the same compound, the “Association constant (Ka) with tagatose” value [7, 16] was 116 ± 2 M⁻¹, the “fluorescence intensity change ΔI/I0” value ([7]; tagatose 0.02 M, pH 7.4, λex 300 nm, λem 445 nm) was 32 (0.02) and the pKa [3, 15] was 9.4. For the same compound, the “quantum yield φF” value ([8]; absence of sugar) was 0.010 and the “quantum yield φF” value ([8]; presence of 50 mM fructose) was 0.42.

In the case of `OB(O)c1ccccc1` [phenylboronic acid], the Ka for glucose [9] is listed as 5 M⁻¹, the Ka for galactose [10] is listed as 15 M⁻¹ and the Ka for fructose [11] is listed as 162 M⁻¹.

For `OB(O)c1cccc2ncccc12` [Compound 3], the “Association constant (Ka) with fructose” value [1] was 924 ± 88 M⁻¹, the “binding constant with D-fructose, increase compared with 8-QBA” value ([1]; 5-QBA versus 8-QBA) was “more than 8 folds” and the “Association constant (Ka) with galactose” value [4] was 90 ± 2 M⁻¹. For the same compound, the “Association constant (Ka) with mannose” value [5] was 60 ± 2 M⁻¹, the “Binding constant with arabinose” value [12] was 121 ± 16 M⁻¹ and the pKa ([3]; phosphate buffer, absence of a sugar, read-out: pKa assigned to the quinolinium nitrogen) was 5.2. It also gave a pKa [13] of 7 to 12.

In the case of `OB(O)c1cccc2cccnc12` [Compound 4, 8-quinolineboronic acid], the “quantum yield φF” value [14] is listed as 0.58.
